Laboratory results taken from patent publication EP1568368A1, “Pharmaceutical combination comprising a CDK inhibitor and a VEGF receptor inhibitor” (Schering Aktiengesellschaft, priority 2004, dated 2005).

Tested on: MaTu estrogen-independent human mammary carcinoma cells
Test: MaTu human estrogen-independent mammary carcinoma xenograft model, tumor growth inhibition (tumor area by caliper)
Format: in vivo, NMRI nude mice
Parameters: inhibition of the growth of the MaTu xenograft model: dose or concentration left out as unconfirmed
Details: monotherapy
Experimental: MaTu (EPO-GmbH, Berlin) estrogen-independent human mammary carcinoma cells, obtained from cell culture, were implanted s.c. in the inguinal region of femal NMRI nude mice. Treatment was started when the tumors were approximately 20 mm^2 in size. The groups were closed when the tumors within a treatment group reached a size of approximately 100 mm^2.
Experimental groups included the following: • 1) Control vehicle • 2) a CDK inhibitor ([…]) • 3) a VEGF-R inhibitor (50 mg/kg, p.o. twice daily, d4-d21) • 4) a CDK inhibitor ([…]) in combination with a VEGF-R inhibitor (50 mg/kg, p.o. twice daily, d4-d21) CDK inhibitor = N-[5-[[[5-(1,1-dimethylethyl)-2-oxazolyl] methyl]thio]-2-thiazolyl]-4-piperidinecarboxamide VEGF-R inhibitor = (4-Chlorophenyl)[4-(4-pyridylmethyl)phthalazin-1-yl]ammonium hydrogen succinate
Tumor area was determined by caliper measurement twice weekly. The example was designed to determine the initial response of a human estrogen-independent mammary carcinoma xenograft model to treatment with a specific CDK inhibitor, to treatment with a specific VEGF-R inhibitor, and to treatment with a combination of a CDK inhibitor together with a VEGF-R inhibitor. The tumor growth inhibiting effect of the compounds was investigated in the MaTu human estrogen-independent mammary carcinoma model, xenografted in NMRI nude mice. […]

Row | Compound | inhibition of the growth of the MaTu xenograft model (i.p. once daily, d4-d21, s.c. xenograft in female NMRI nude mice) | inhibition of tumor growth (50 mg/kg p.o. twice daily, d4-d21, s.c. MaTu xenograft in female NMRI nude mice)
1 | CC(C)(C)c1cnc(CSc2cnc(NC(=O)C3CCNCC3)s2)o1 [CDK inhibitor, N-[5-[[[5-(1,1-dimethylethyl)-2-oxazolyl]methyl]thio]-2-thiazolyl]-4-piperidinecarboxamide] | ineffective | 
2 | Clc1ccc(Nc2nnc(Cc3ccncc3)c3ccccc23)cc1.O=C(O)CCC(=O)O [VEGF-R inhibitor, (4-Chlorophenyl)[4-(4-pyridylmethyl)phthalazin-1-yl]ammonium hydrogen succinate] |  | initially an inhibition of tumor growth
